ChEMBL document CHEMBL3751767, “Synthesis, in vitro and in vivo anticancer activities of novel 4-substituted 1,2-bis(4-chlorophenyl)-pyrazolidine-3,5-dione derivatives” (Medchemcomm, 2015)

Legend:
[1] = Cytotoxicity against human MGC803 cells assessed as reduction in cell viability after 72 hrs by MTT assay; format: functional, cell-based; details: MGC-803, 72 h
[2] = Cytotoxicity against human SMMC7721 cells assessed as reduction in cell viability after 72 hrs by MTT assay; format: functional, cell-based; details: SMMC-7721, 72 h
MCF7 = assay: Cytotoxicity against human MCF7 cells assessed as reduction in cell viability after 72 hrs by MTT assay; format: functional, cell-based; details: MCF7, 72 h
[3] = Cytotoxicity against human EC109 cells assessed as reduction in cell viability after 72 hrs by MTT assay; format: functional, cell-based; details: ECa-109, 72 h
[4] = Antitumor activity against human MGC803 cells xenografted in nude mouse assessed as reduction in tumor weight at 30 mg/kg, po qd for 28 days relative to control; format: functional, MGC-803; set-up: scale not given: the % may be the effect or the level left

| Structure (SMILES) | IC50 [1] [µM] | IC50 [2] [µM] | IC50 (MCF7) [µM] | IC50 [3] [µM] | Activity [4] [%] |
| --- | --- | --- | --- | --- | --- |
| CCC(C)=C1C(=O)N(c2ccc(Cl)cc2)N(c2ccc(Cl)cc2)C1=O | 66.5 | 49.2 | 41.6 | 41.1 |  |
| COc1cc(C=C2C(=O)N(c3ccc(Cl)cc3)N(c3ccc(Cl)cc3)C2=O)ccc1O | 21.8 | 64.9 | 22.8 | 7.1 |  |
| COc1ccccc1C=C1C(=O)N(c2ccc(Cl)cc2)N(c2ccc(Cl)cc2)C1=O | 28.6 | 25.8 | 26.3 | 30.4 |  |
| COc1cccc(C=C2C(=O)N(c3ccc(Cl)cc3)N(c3ccc(Cl)cc3)C2=O)c1O | 24.3 | 64.9 | 26.7 | 39 |  |
| O=C1C(=Cc2ccc(Cl)cc2)C(=O)N(c2ccc(Cl)cc2)N1c1ccc(Cl)cc1 | 32.6 | 30.9 | 28.5 | 17.3 |  |
| COc1cc(C=C2C(=O)N(c3ccc(Cl)cc3)N(c3ccc(Cl)cc3)C2=O)cc(OC)c1OC | 17.3 | 29.5 | 16.2 | 10.1 |  |
| O=C1C(=Cc2ccc(O)cc2)C(=O)N(c2ccc(Cl)cc2)N1c1ccc(Cl)cc1 | 19.5 | 20.6 | 23.2 | 34.2 |  |
| O=C1C(=Cc2ccco2)C(=O)N(c2ccc(Cl)cc2)N1c1ccc(Cl)cc1 | 12.8 | 19.5 | 20.3 | 14.3 |  |
| O=C1C(=Cc2ccc(Cl)cc2Cl)C(=O)N(c2ccc(Cl)cc2)N1c1ccc(Cl)cc1 | > 128 | > 128 | > 128 | 60.2 |  |
| O=C1C(=Cc2ccccc2)C(=O)N(c2ccc(Cl)cc2)N1c1ccc(Cl)cc1 | 27.2 | 26.2 | 20.2 | 32.7 |  |
| CN(C)c1ccc(C=C2C(=O)N(c3ccc(Cl)cc3)N(c3ccc(Cl)cc3)C2=O)cc1 | 80.2 | > 128 | > 128 | > 128 |  |
| COc1ccc(C=C2C(=O)N(c3ccc(Cl)cc3)N(c3ccc(Cl)cc3)C2=O)cc1OC | > 128 | > 128 | > 128 | > 128 |  |
| O=C1C(=Cc2cccc(Cl)c2)C(=O)N(c2ccc(Cl)cc2)N1c1ccc(Cl)cc1 | 14.4 | 20.2 | 18.3 | 22.6 |  |
| O=c1[nH]cc(F)c(=O)[nH]1 [FLUOROURACIL] | 9.2 | 14.2 | 13.5 | 15.9 |  |
| COc1cccc(C=C2C(=O)N(c3ccc(Cl)cc3)N(c3ccc(Cl)cc3)C2=O)c1OC | 29.6 | 14.1 | 11.9 | 6.8 |  |
| O=C1C(=Cc2ccc(F)c(F)c2)C(=O)N(c2ccc(Cl)cc2)N1c1ccc(Cl)cc1 | 35.7 | 35.8 | 22 | 13.1 |  |
| CCCCCOC(=O)Nc1nc(=O)n([C@@H]2O[C@H](C)[C@@H](O)[C@H]2O)cc1F [CAPECITABINE] |  |  |  |  | 62.7 |
| O=C1C(=Cc2ccc(F)cc2)C(=O)N(c2ccc(Cl)cc2)N1c1ccc(Cl)cc1 | 26 | 23.3 | 31.4 | 35.6 |  |
| CC(=C1C(=O)N(c2ccc(Cl)cc2)N(c2ccc(Cl)cc2)C1=O)c1ccc(O)cc1 | 42.8 | 57 | 76.5 | 55.6 |  |
| O=C1C(=Cc2c[nH]c3ccccc23)C(=O)N(c2ccc(Cl)cc2)N1c1ccc(Cl)cc1 | 21.8 | 19.6 | 34.2 | 23.4 |  |
| CC(C)=C1C(=O)N(c2ccc(Cl)cc2)N(c2ccc(Cl)cc2)C1=O | 39 | 45.6 | 39.6 | 42.1 |  |
| O=C1C(=Cc2ccc(Br)cc2)C(=O)N(c2ccc(Cl)cc2)N1c1ccc(Cl)cc1 | 16.9 | 16.6 | 30.4 | 12.3 |  |
| COc1cccc(C=C2C(=O)N(c3ccc(Cl)cc3)N(c3ccc(Cl)cc3)C2=O)c1 | 26.6 | 30.2 | 18.1 | 29 |  |
| COc1ccc(C=C2C(=O)N(c3ccc(Cl)cc3)N(c3ccc(Cl)cc3)C2=O)cc1 | > 128 | > 128 | > 128 | > 128 |  |
